# Measured values reported in publication PMC6001238, “Iterative Chemical Engineering of Vancomycin Leads to Novel Vancomycin Analogs With a High in Vitro Therapeutic Index” (Frontiers in Microbiology, 2018).
# Assays:
# [1] = test system: S. aureus VSSA (ATCC 6538); assay: MIC, broth microdilution, vancomycin-sensitive S. aureus (VSSA/MSSA, ATCC 6538); type: cell-based, Staphylococcus aureus; settings: for MIC: Staphylococcus aureus VSSA, read-out: MIC; for MIC-fold improvement vs. vancomycin: VSSA, ratio of MIC of vancomycin and MIC of analogue
# Protocol: (§1) The minimum inhibitory concentration (MIC) was determined using the broth microdilution method according to the antimicrobial susceptibility testing standards of the clinical and laboratory standards institute ([Clinical and Laboratory Standards Institute [CLSI], 2012]). Ultrapure water and non-inoculated broth were used as controls. In one case, a final concentration of 10 μM vancomycin was included with the vancomycin analog or control antibiotic.
# [2] = test system: human T-lymphocyte (CEM) cells; assay: Cytostatic activity, CEM cell proliferation; type: cell-based; settings: mean ± SD of three experiments; highest concentration tested 250 µM; 3 days; read-out: Toxicity (IC50) CEM
# Protocol: (§2) Murine leukemia (L1210), human T-lymphocyte (CEM) and the human cervix carcinoma (HeLa) cell line were suspended at 300,000–500,000 cells/mL of culture medium, and 100 μL of a cell suspension was added to 100 μL of an appropriate dilution of the test compounds in wells of 96-well microtiter plates. After incubation at 37°C for 2 (L1210), 3 (CEM), or 4 (HeLa) days, the cell number was determined using a Coulter counter. The IC50 was defined per cell type as the compound concentration required to inhibit cell proliferation by 50% compared to the negative control ([Glowacka et al., 2017]).
# S. aureus VISA/HIP5827 = assay: MIC, broth microdilution, vancomycin-intermediate S. aureus VISA HIP5827; type: cell-based, Staphylococcus aureus; settings: for MIC: Staphylococcus aureus VISA/HIP5827, read-out: MIC; for MIC-fold improvement vs. vancomycin: VISA/HIP5827, ratio of MIC of vancomycin and MIC of analogue
# Protocol: as §1
# MRSA KS1 = assay: MIC, broth microdilution, MRSA KS1; type: cell-based, Staphylococcus aureus; settings: for MIC-fold improvement vs. vancomycin: MRSA KS1, ratio of MIC of vancomycin and MIC of analogue; for MIC: Staphylococcus aureus MRSA KS1, read-out: MIC
# Protocol: as §1
# [3] = test system: Murine leukemia (L1210) cells; assay: Cytostatic activity, L1210 cell proliferation; type: cell-based; settings: mean ± SD of three experiments; highest concentration tested 250 µM; 2 days; read-out: Toxicity (IC50) L1210
# Protocol: as §2
# [4] = test system: L1210, CEM and HeLa cell lines; assay: Cytostatic activity, average or summary over L1210, CEM and HeLa; type: cell-based; settings: average of L1210, CEM and HeLa; read-out: Toxicity (IC50) Average
# Protocol: as §2
# MRSA KS2 = assay: MIC, broth microdilution, MRSA KS2; type: cell-based, Staphylococcus aureus; settings: for MIC-fold improvement vs. vancomycin: MRSA KS2, ratio of MIC of vancomycin and MIC of analogue; for MIC: Staphylococcus aureus MRSA KS2, read-out: MIC
# Protocol: as §1
# E. faecalis VRE 6 = assay: MIC, broth microdilution, vancomycin-resistant E. faecalis VRE 6 (VanA); type: cell-based, Enterococcus faecalis; settings: for MIC: Enterococcus faecalis VRE 6 (vancomycin-resistant), read-out: MIC; for MIC-fold improvement vs. vancomycin: VRE 6, ratio of MIC of vancomycin and MIC of analogue
# Protocol: as §1
# E. faecalis VSE 1 = assay: MIC, broth microdilution, vancomycin-sensitive E. faecalis (VSE 1); type: cell-based, Enterococcus faecalis; settings: for MIC: Enterococcus faecalis VSE 1 (vancomycin-sensitive), read-out: MIC; for MIC-fold improvement vs. vancomycin: VSE 1, ratio of MIC of vancomycin and MIC of analogue
# Protocol: as §1
# E. faecalis VRE 29 = assay: MIC, broth microdilution, vancomycin-resistant E. faecalis VRE 29 (VanA); type: cell-based, Enterococcus faecalis; settings: for MIC: Enterococcus faecalis VRE 29 (vancomycin-resistant), read-out: MIC; for MIC-fold improvement vs. vancomycin: VRE 29, ratio of MIC of vancomycin and MIC of analogue
# Protocol: as §1
# E. faecalis VRE 37 = assay: MIC, broth microdilution, vancomycin-resistant E. faecalis VRE 37 (VanA); type: cell-based, Enterococcus faecalis; settings: for MIC: Enterococcus faecalis VRE 37 (vancomycin-resistant), read-out: MIC; for MIC-fold improvement vs. vancomycin: VRE 37, ratio of MIC of vancomycin and MIC of analogue
# Protocol: as §1
# [5] = test system: human cervix carcinoma (HeLa) cells; assay: Cytostatic activity, HeLa cell proliferation; type: cell-based; settings: mean ± SD of three experiments; highest concentration tested 250 µM; 4 days; read-out: Toxicity (IC50) HeLa
# Protocol: as §2
# E. faecalis VRE 53 = assay: MIC, broth microdilution, vancomycin-resistant E. faecalis VRE 53 (VanA); type: cell-based, Enterococcus faecalis; settings: for MIC: Enterococcus faecalis VRE 53 (vancomycin-resistant), read-out: MIC; for MIC-fold improvement vs. vancomycin: VRE 53, ratio of MIC of vancomycin and MIC of analogue
# Protocol: as §1
# MRSA KS6 = assay: MIC, broth microdilution, MRSA KS6; type: cell-based, Staphylococcus aureus; settings: for MIC-fold improvement vs. vancomycin: MRSA KS6, ratio of MIC of vancomycin and MIC of analogue; for MIC: Staphylococcus aureus MRSA KS6, read-out: MIC
# Protocol: as §1
# S. aureus VRSA = assay: MIC, broth microdilution, vancomycin-resistant S. aureus (VRSA); type: cell-based, Staphylococcus aureus; settings: for MIC: Staphylococcus aureus VRSA, read-out: MIC; for MIC-fold improvement vs. vancomycin: VRSA, ratio of MIC of vancomycin and MIC of analogue
# Protocol: as §1
# MRSA KS89 = assay: MIC, broth microdilution, MRSA KS89; type: cell-based, Staphylococcus aureus; settings: for MIC-fold improvement vs. vancomycin: MRSA KS8, ratio of MIC of vancomycin and MIC of analogue; for MIC: Staphylococcus aureus MRSA KS8, read-out: MIC
# Protocol: as §1
MIC [1] [µM],MIC-fold improvement vs. vancomycin [1],MIC (S. aureus VISA/HIP5827) [µM],MIC-fold improvement vs. vancomycin (S. aureus VISA/HIP5827),MIC-fold improvement vs. vancomycin (MRSA KS1),MIC (MRSA KS1) [µM],MIC-fold improvement vs. vancomycin (MRSA KS2),MIC (MRSA KS2) [µM],MIC (E. faecalis VRE 6) [µM],MIC-fold improvement vs. vancomycin (E. faecalis VRE 6),MIC (E. faecalis VSE 1) [µM],MIC-fold improvement vs. vancomycin (E. faecalis VSE 1),MIC (E. faecalis VRE 29) [µM],MIC-fold improvement vs. vancomycin (E. faecalis VRE 29),MIC (E. faecalis VRE 37) [µM],MIC (E. faecalis VRE 53) [µM],Compound,IC50 [2] [µM],IC50 [3] [µM],IC50 [4] [µM],IC50 [5] [µM],also measured
0.39,2,0.78,8,>8,<0.10,4,0.20,1.56,128,0.78,2,3.13,128,3.13,3.13,CNC(CC(C)C)C(=O)NC1C(=O)NC(CC(N)=O)C(=O)NC2C(=O)NC3C(=O)NC(C(=O)NC(C(=O)NCC(=O)Nc4ccc(-c5cn(-c6ccc(C)cc6)nn5)cc4)c4cc(O)cc(O)c4-c4cc3ccc4O)C(O)c3ccc(c(Cl)c3)Oc3cc2cc(c3OC2OC(CO)C(O)C(O)C2OC2CC(C)(N)C(O)C(C)O2)Oc2ccc(cc2Cl)C1O (centres unmarked) [Vanc-76],3.2 ± 0.6,11 ± 7,10,17 ± 2,MIC-fold improvement vs. vancomycin (E. faecalis VRE 37): 128; MIC-fold improvement vs. vancomycin (E. faecalis VRE 53): 128; MIC-fold improvement vs. vancomycin (MRSA KS6): 4; MIC (MRSA KS6): 0.20 µM; MIC (S. aureus VRSA): 0.78 µM; MIC-fold improvement vs. vancomycin (S. aureus VRSA): 128; MIC-fold improvement vs. vancomycin (MRSA KS89): 4; MIC (MRSA KS89): 0.20 µM
0.78,1,0.78,8,4,0.20,4,0.20,3.13,64,0.78,2,3.13,128,3.13,3.13,CCCCCCc1ccc(NC(=O)CNC(=O)[C@H]2NC(=O)[C@H]3NC(=O)[C@H](NC(=O)[C@@H]4NC(=O)[C@H](CC(N)=O)NC(=O)[C@H](NC(=O)[C@@H](CC(C)C)NC)[C@H](O)c5ccc(c(Cl)c5)Oc5cc4cc(c5O[C@@H]4O[C@H](CO)[C@@H](O)[C@H](O)[C@H]4O[C@H]4C[C@](C)(N)[C@H](O)[C@H](C)O4)Oc4ccc(cc4Cl)[C@H]3O)c3ccc(O)c(c3)-c3c(O)cc(O)cc32)cc1 [Vanc-75],15 ± 3,17 ± 7,38,83 ± 4,MIC-fold improvement vs. vancomycin (E. faecalis VRE 37): 128; MIC-fold improvement vs. vancomycin (E. faecalis VRE 53): 128; MIC-fold improvement vs. vancomycin (MRSA KS6): 2; MIC (MRSA KS6): 0.39 µM; MIC (S. aureus VRSA): 1.56 µM; MIC-fold improvement vs. vancomycin (S. aureus VRSA): 64; MIC-fold improvement vs. vancomycin (MRSA KS89): 4; MIC (MRSA KS89): 0.20 µM

Compound,MIC [1] [µM],MIC-fold improvement vs. vancomycin [1],MIC (S. aureus VISA/HIP5827) [µM],MIC-fold improvement vs. vancomycin (S. aureus VISA/HIP5827),MIC-fold improvement vs. vancomycin (MRSA KS1),MIC (MRSA KS1) [µM],MIC-fold improvement vs. vancomycin (MRSA KS2),MIC (MRSA KS2) [µM],MIC (E. faecalis VRE 6) [µM],MIC-fold improvement vs. vancomycin (E. faecalis VRE 6),MIC (E. faecalis VSE 1) [µM],MIC-fold improvement vs. vancomycin (E. faecalis VSE 1),MIC (E. faecalis VRE 29) [µM],MIC-fold improvement vs. vancomycin (E. faecalis VRE 29),MIC (E. faecalis VRE 37) [µM],MIC (E. faecalis VRE 53) [µM],IC50 [2] [µM],IC50 [3] [µM],IC50 [4] [µM],IC50 [5] [µM],also measured
CNC(CC(C)C)C(=O)NC1C(=O)NC(CC(N)=O)C(=O)NC2C(=O)NC3C(=O)NC(C(=O)NC(C(=O)NCCNC(=O)C=Cc4ccc(NS(=O)(=O)c5ccc(Cl)cc5)cc4)c4cc(O)cc(O)c4-c4cc3ccc4O)C(O)c3ccc(c(Cl)c3)Oc3cc2cc(c3OC2OC(CO)C(O)C(O)C2OC2CC(C)(N)C(O)C(C)O2)Oc2ccc(cc2Cl)C1O (centres unmarked) [Vanc-62],0.39,2,1.56,4,4,0.20,4,0.20,3.13,64,0.39,4,6.25,64,12.5,25,≥ 250,> 250,195,86 ± 42,MIC-fold improvement vs. vancomycin (E. faecalis VRE 53): 16; MIC-fold improvement vs. vancomycin (MRSA KS6): 2; MIC (MRSA KS6): 0.39 µM; MIC (S. aureus VRSA): 0.78 µM; MIC-fold improvement vs. vancomycin (S. aureus VRSA): 128; MIC-fold improvement vs. vancomycin (MRSA KS89): 2; MIC (MRSA KS89): 0.39 µM
